Results: US10519111B2, “UV absorbing compounds, compositions comprising same and uses thereof” (CORAL SUNSCREEN PTY LTD, priority 2013, dated 2019)
Values belong to the compound of their own block, whether it stands above or below them.

What was measured:
[1] = UV absorption properties (λmax, molar extinction coefficient ε, efficiency E 1%, 1 cm); type: physicochemical
[2] = Critical wavelength (λcrit), approximate in-house measurement; type: physicochemical
Description: As the precise test for critical wavelength was unable to be replicated exactly by the inventors due to the need for specialist equipment and a specific calibration of the spectrophotometer, these values are only approximate to a degree. […] This represents a highly useful result and so, compounds based around this benzoyl substitution pattern shown, are especially preferred.

[3] = Table 13B, miscellaneous compounds
[4] = Table 3, compounds from isocyanates or isothiocyanates
[5] = Table 6B, N-tert-butyl compounds
[6] = Table 13B, values in order of the λmax values
[7] = Table 13B, values in order of the λmax values, in M-1 cm-1
[8] = Table 9, C3-trifluoroacetylated N-aryl enamines

SMILES: CCCCCCC(=O)C1=CN(c2ccc(N3C=C(C(=O)CCCCCC)C(C)(C)CC3)cc2)CCC1(C)C
λmax [1, 3]: 359 nm
λcrit ([2]; Table 13B): 378 nm

SMILES: CC1(C)CCN(C(C)(C)C)C=C1C(=O)c1ccc(C(=O)C2=CN(C(C)(C)C)CCC2(C)C)cc1 [drawing 97]
E (1%, 1 cm) ([1]; Table 6B): 732
λmax [1, 5]: 317 nm
ε ([1]; Table 6B, in M-1 cm-1): 33982
λcrit ([2]; Table 6B): 355 nm

SMILES: CC1(C)CCN(C(C)(C)C)C=C1C(=O)c1ccc(Br)cc1 [drawing 94]
E (1%, 1 cm) ([1]; Table 6B): 785
λmax [1, 5]: 317 nm
ε ([1]; Table 6B, in M-1 cm-1): 27506
λcrit ([2]; Table 6B): 347 nm

SMILES: CC1(C)CCN(C(C)(C)C)C=C1C(=O)Nc1ccc(NC(=O)C2=CN(C(C)(C)C)CCC2(C)C)cc1 [drawing 65]
Ε (1%, 1 cm) ([1]; Table 3): 1456
λmax [1, 4]: 322 nm
ε ([1]; Table 3, in M-1 cm-1): 71962
λcrit ([2]; Table 3): 346 nm

SMILES: CCC(=O)C1=CN(CC(C)C)C=CC1(C)C [drawing 170]
E (1%, 1 cm) ([1]; Table 13A): 362
ε ([1]; Table 13A): 8800 M⁻¹ cm⁻¹
λmax ([1]; Table 13A, miscellaneous compounds): 366 nm
λcrit ([2]; Table 13A): 386 nm

SMILES: CC1(C)CCN(C(C)(C)C)C=C1C(=S)Nc1ccccc1 [drawing 60]
Ε (1%, 1 cm) ([1]; Table 3): 691
λmax [1, 4]: 363 nm
ε ([1]; Table 3, in M-1 cm-1): 20881
λcrit ([2]; Table 3): 387 nm

SMILES: CC(C)(C)CC(C)(C)N1C=C(C(=O)/C=C/c2ccc(Br)cc2)C(C)(C)CC1
λmax [1, 3]: 360 nm
E (1%, 1 cm) [1, 6]: 437
ε [1, 7]: 18987
λcrit ([2]; Table 13B): 386 nm

SMILES: CC1(C)CCN(C(C)(C)C)C=C1C(=O)c1ccc(N2CCCN(c3ccc(C(=O)C4=CN(C(C)(C)C)CCC4(C)C)cc3)CC2)cc1
λcrit ([2]; Table 13B): 365 nm

SMILES: CC(C)(C)CC(C)(C)N1C=C(C(=O)/C=C/c2ccc(/C=C/C(=O)C3=CN(C(C)(C)CC(C)(C)C)CCC3(C)C)cc2)C(C)(C)CC1
λmax [1, 3]: 386 nm
E (1%, 1 cm) [1, 6]: 486
ε [1, 7]: 31937
λcrit ([2]; Table 13B): 390 nm

SMILES: CC(C)(C)Oc1ccc(C(=O)C2=CN(C(C)(C)C)CCC2(C)C)cc1 [drawing 96]
E (1%, 1 cm) ([1]; Table 6B): 949
λmax [1, 5]: 317 nm
ε ([1]; Table 6B, in M-1 cm-1): 32556
λcrit ([2]; Table 6B): 344 nm

SMILES: CC(C)=CCCC(C)CC(=O)C1=CN(c2ccc(N3C=C(C(=O)CC(C)CCC=C(C)C)C(C)(C)CC3)cc2)CCC1(C)C (stereo not drawn) [drawing 213]
λmax [1, 3]: 358 nm
E (1%, 1 cm) [1, 6]: 550
ε [1, 7]: 33000
λcrit ([2]; Table 13B): 378 nm

SMILES: CCOC(=O)c1cc(/C=C/C(=O)C2=CN(C(C)(C)C)CCC2(C)C)c(C(=O)OCC)cc1/C=C/C(=O)C1=CN(C(C)(C)C)CCC1(C)C
λmax [1, 3]: 383 nm
E (1%, 1 cm) [1, 6]: 355
ε [1, 7]: 23457
λcrit ([2]; Table 13B): 388 nm

SMILES: CC1(C)CCN(C(C)(C)C)C=C1C(=O)c1ccncc1 [drawing 75]
λmax ([1]; Table 5, acylation of N-t-Bu enamine): 316 nm
Ε (1%, 1 cm) ([1]; Table 5, values in order of the λmax values): 866
ε ([1]; Table 5, values in order of the λmax values, in M-1 cm-1): 23556
λcrit ([2]; Table 5): 354 nm

SMILES: Cc1ccc(NC(=O)C2=CN(C(C)(C)C)CCC2(C)C)cc1NC(=O)C1=CN(C(C)(C)C)CCC1(C)C [drawing 62]
Ε (1%, 1 cm) ([1]; Table 3): 1174
λmax [1, 4]: 308 nm
ε ([1]; Table 3, in M-1 cm-1): 59763
λcrit ([2]; Table 3): 329 nm

The next lines start with the values.

E (1%, 1 cm) ([1]; Table 8b): 1069
λmax ([1]; Table 8b, N-phenyl compounds): 329 nm
ε ([1]; Table 8b, in M-1 cm-1): 31955
λcrit ([2]; Table 8b): 348 nm
SMILES: CCC(=O)C1=CN(c2ccc(C(C)(C)C)cc2)CCC1(C)C [drawing 136]

Ε (1%, 1 cm) ([1]; Table 3): 1217
λmax [1, 4]: 308 nm
ε ([1]; Table 3, in M-1 cm-1): 34834
λcrit ([2]; Table 3): 326 nm
SMILES: CC1(C)CCN(C(C)(C)C)C=C1C(=O)Nc1ccccc1 [drawing 57]

E (1%, 1 cm) ([1]; Table 8b): 759
λmax ([1]; Table 8b, N-phenyl compounds): 339 nm
ε ([1]; Table 8b, in M-1 cm-1): 26633
λcrit ([2]; Table 8b): 362 nm
SMILES: COc1ccc(N2C=C(C(=O)COc3ccccc3)C(C)(C)CC2)cc1 [drawing 132]

E (1%, 1 cm) ([1]; Table 8b): 1008
λmax ([1]; Table 8b, N-phenyl compounds): 334 nm
ε ([1]; Table 8b, in M-1 cm-1): 33786
λcrit ([2]; Table 8b): 350 nm
SMILES: COc1ccc(N2C=C(C(=O)Cc3ccccc3)C(C)(C)CC2)cc1 [drawing 133]

E (1%, 1 cm) ([1]; Table 9): 1260
λmax [1, 8]: 337 nm
ε ([1]; Table 9, in M-1 cm-1): 42723
λcrit ([2]; Table 9): 361 nm
SMILES: CC1(C)CCN(c2ccc(C(C)(C)C)cc2)C=C1C(=O)C(F)(F)F [drawing 139]

E (1%, 1 cm) ([1]; Table 8b): 793
λmax ([1]; Table 8b, N-phenyl compounds): 321 nm
ε ([1]; Table 8b, in M-1 cm-1): 23247
λcrit ([2]; Table 8b): 346 nm
SMILES: CCC(=O)C1=CN(c2cccc3ccccc23)CCC1(C)C [drawing 137]

E (1%, 1 cm) ([1]; Table 11): 707
λmax ([1]; Table 11, compounds from mixed anhydrides): 339 nm
ε ([1]; Table 11, in M-1 cm-1): 30745
λcrit ([2]; Table 11): 358 nm
SMILES: CC1(C)CCN(c2ccc(C(C)(C)C)cc2)C=C1C(=O)C1c2ccccc2-c2ccccc21 [drawing 158]

E (1%, 1 cm) ([1]; Table 9): 1004
λmax [1, 8]: 354 nm
ε ([1]; Table 9, in M-1 cm-1): 32744
λcrit ([2]; Table 9): 385 nm
SMILES: CN(C)c1ccc(N2C=C(C(=O)C(F)(F)F)C(C)(C)CC2)cc1 [drawing 141]

E (1%, 1 cm) ([1]; Table 6B): 781
λmax [1, 5]: 360 nm
ε ([1]; Table 6B, in M-1 cm-1): 23198
λcrit ([2]; Table 6B): 385 nm
SMILES: CC1(C)CCN(C(C)(C)C)C=C1C(=O)/C=C/c1ccccc1 [drawing 93]
